What was measured:
[1] = tested on: E. coli BAA-196 (TEM-10); assay: MIC, Agar Dilution Method, ESBL producing ATCC isolate; format: cell-based
Procedure: (§1) The novel compounds were tested for the in vitro antibacterial activities by the Agar Dilution Method as specified in documents published by NCCLS, now CLSI, USA. (National Committee for Clinical Laboratory Standards (NCCLS). 2003. Approved standard M7-A6. NCCLS, Villanova, Pa.).
(§2) Tazo was also dissolved in same buffer to get a solution of, e.g., 1 mg/mL. Novel penam derivatives described herein were dissolved in water to get a solution of, e.g., 1 mg/mL.
(§3) The novel compounds and Tazo were also tested individually. The bacterial inoculum was prepared by picking 3 to 5 well-isolated bacterial colonies with the same morphological appearance from an 18-24 h old culture and adjusting the turbidity of the saline suspension to 0.5 McFarland Turbidity Standard equivalent to a bacterial population of 1.5×10^8 colony forming units (CFU) per mL of suspension. The suspension was diluted 1:10 in saline (i.e. 0.5 mL suspension+4.5 mL saline) to get a bacterial population of 1.5×10^7 CFU/mL as inoculum. […] The inoculated petridishes were incubated at 35° C. in an ambient atmosphere for 16-20 h.

[2] = tested on: E. coli BAA-197 (TEM-12); assay: as above; format: cell-based
Procedure: as §1, §2, §3

[3] = tested on: E. coli BAA-198 (TEM-26); assay: as above; format: cell-based
Procedure: as §1, §2, §3

[4] = tested on: E. coli BAA-199 (SHV-3); assay: as above; format: cell-based; conditions: E. coli BAA-199, SHV-3
Procedure: as §1, §2, §3

[5] = tested on: E. coli BAA-200 (SHV-4); assay: as above; format: cell-based; conditions: E. coli BAA-200, SHV-4
Procedure: as §1, §2, §3

[6] = tested on: E. coli BAA-201 (TEM-3); assay: as above; format: cell-based
Procedure: as §1, §2, §3

[7] = tested on: E. coli BAA-202 (SHV-1); assay: as above; format: cell-based
Procedure: as §1, §2, §3

[8] = tested on: K. pneumoniae 51503 (TEM-10 & -12); assay: as above; format: cell-based
Procedure: as §1, §2, §3

[9] = tested on: P. mirabilis BAA-663 (TEM-89); assay: as above; format: cell-based
Procedure: as §1, §2, §3

[10] = Minimum bactericidal studies, broth macrodilution; format: cell-based
Procedure: Minimum bactericidal studies were performed by broth macrodilution technique as described by NCCLS.

[11] = Intravenous pharmacokinetics in mice; format: in vivo, Swiss mice; conditions: mouse, in vivo, iv
Source text: Blood samples were collected at different time points. These samples were processed and analyzed by HPLC.

[12] = tested on: E. coli MRO 10006; assay: In vivo efficacy, infected mice; conditions: Swiss albino mice infected with E. coli MRO 10006; Piperacillin:inhibitor 4:1; 7-day survival
Procedure: (§4) The efficacy studies were performed as described earlier (Kuck et al, 1989, Antimicrob. Agents. Chemother. 33(11): 1964-1969). Briefly, Swiss albino mice, 20+2 g, from in-house breeding facility were challenged by the intraperitoneal injection of bacterial suspensions in 0.5 mL of hog gastric mucin (10 to 100 50% lethal doses). […] All the untreated control animals died within 48 h of infection. In each experiment, in-house Tazo was used as an inhibitor control in four doses. Median (50%) effective dose (ED50) were determined by applying the Reed and Muench's method of the 7-day survival ratios.

[13] = tested on: E. coli MRO 10007; assay: In vivo efficacy, infected mice; conditions: Swiss albino mice infected with E. coli MRO 10007; Piperacillin:inhibitor 4:1; 7-day survival
Procedure: as §4

[14] = tested on: K. pneumoniae MRO 11008; assay: In vivo efficacy, infected mice; conditions: Swiss albino mice infected with K. pneumoniae MRO 11008; Piperacillin:inhibitor 4:1; 7-day survival
Procedure: as §4

SMILES: C[C@]1(Cn2ccnn2)[C@H](C(=O)O)N2C(=O)C[C@H]2S1(=O)=O [Tazo]
- MIC of Piperacillin with different concentrations of Tazo or compound of Example 1 ([1]; inhibitor 1 μg/mL): 64 µg/mL
- MIC of Piperacillin with different concentrations of Tazo or compound of Example 1 ([1]; inhibitor 2 μg/mL): 16 µg/mL
- MIC of Piperacillin with different concentrations of Tazo or compound of Example 1 ([1]; inhibitor 4 μg/mL): 4 µg/mL
- MIC of Piperacillin with different concentrations of Tazo or compound of Example 1 ([2]; inhibitor 1 μg/mL): 64 µg/mL
- MIC of Piperacillin with different concentrations of Tazo or compound of Example 1 ([2]; inhibitor 2 μg/mL): 8 µg/mL
- MIC of Piperacillin with different concentrations of Tazo or compound of Example 1 ([2]; inhibitor 4 μg/mL): 4 µg/mL
- MIC of Piperacillin with different concentrations of Tazo or compound of Example 1 ([3]; inhibitor 1 μg/mL): 4 µg/mL
- MIC of Piperacillin with different concentrations of Tazo or compound of Example 1 ([3]; inhibitor 2 μg/mL): 4 µg/mL
- MIC of Piperacillin with different concentrations of Tazo or compound of Example 1 ([3]; inhibitor 4 μg/mL): 4 µg/mL
- MIC of Piperacillin with different concentrations of Tazo or compound of Example 1 ([4]; inhibitor 1 μg/mL): >128 µg/mL
- MIC of Piperacillin with different concentrations of Tazo or compound of Example 1 ([4]; inhibitor 2 μg/mL): >128 µg/mL
- MIC of Piperacillin with different concentrations of Tazo or compound of Example 1 ([4]; inhibitor 4 μg/mL): >128 µg/mL
- MIC of Piperacillin with different concentrations of Tazo or compound of Example 1 ([5]; inhibitor 1 μg/mL): >128 µg/mL
- MIC of Piperacillin with different concentrations of Tazo or compound of Example 1 ([5]; inhibitor 2 μg/mL): >128 µg/mL
- MIC of Piperacillin with different concentrations of Tazo or compound of Example 1 ([5]; inhibitor 4 μg/mL): 4 µg/mL
- MIC of Piperacillin with different concentrations of Tazo or compound of Example 1 ([6]; inhibitor 1 μg/mL): 4 µg/mL
- MIC of Piperacillin with different concentrations of Tazo or compound of Example 1 ([6]; inhibitor 2 μg/mL): 4 µg/mL
- MIC of Piperacillin with different concentrations of Tazo or compound of Example 1 ([6]; inhibitor 4 μg/mL): 2 µg/mL
- MIC of Piperacillin with different concentrations of Tazo or compound of Example 1 ([7]; inhibitor 1 μg/mL): >128 µg/mL
- MIC of Piperacillin with different concentrations of Tazo or compound of Example 1 ([7]; inhibitor 2 μg/mL): >128 µg/mL
- MIC of Piperacillin with different concentrations of Tazo or compound of Example 1 ([7]; inhibitor 4 μg/mL): >128 µg/mL
- MIC of Piperacillin with different concentrations of Tazo or compound of Example 1 ([8]; inhibitor 1 μg/mL): >128 µg/mL
- MIC of Piperacillin with different concentrations of Tazo or compound of Example 1 ([8]; inhibitor 2 μg/mL): >128 µg/mL
- MIC of Piperacillin with different concentrations of Tazo or compound of Example 1 ([8]; inhibitor 4 μg/mL): 16 µg/mL
- MIC of Piperacillin with different concentrations of Tazo or compound of Example 1 ([9]; inhibitor 1 μg/mL): 8 µg/mL
- MIC of Piperacillin with different concentrations of Tazo or compound of Example 1 ([9]; inhibitor 2 μg/mL): 8 µg/mL
- MIC of Piperacillin with different concentrations of Tazo or compound of Example 1 ([9]; inhibitor 4 μg/mL): 4 µg/mL
- Minimum bactericidal concentration study, Piperacillin in combination with inhibitor [10]: bacteriostatic
- Elimination half-life [11]: 16.1 min
- ED50 of Piperacillin in combination with inhibitor [12]: 37.22 mg/kg b.w.
- ED50 of Piperacillin in combination with inhibitor [13]: 58.81 mg/kg b.w.
- ED50 of Piperacillin in combination with inhibitor [14]: 99.48 mg/kg b.w.

Reference: patent publication US20090093423A2, “NOVEL 2-SUBSTITUTED METHYL PENAM DERIVATIVES” (Orchid Chemicals and Pharmaceuticals Limited, priority 2006, published 2009)
